Experiments:
[1] = biological target: T1, LRRK2 G2019S (Homo sapiens, UniProt Q5S007, G2019S); test: LRRK2 Kinase Activity Assay (LanthaScreen TR-FRET), G2019S; assay type: biochemical; conditions: recombinant G2019S-LRRK2, 25 μM ATP, 400 nM LRRKtide, 60 min; class symbols
T1 construct: purchased Life Technologies PV4881
In short: (§1)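 IC50 fitted to the compound-dependent loss of TR-FRET signal. Each kinase form, wild type or G2019S, phosphorylated the fluorescein-tagged ERM-derived LRRKtide in the presence of ATP and compound dilutions over 60 min at room temperature; quench contained 10 mM EDTA and 2 nM anti-pERM antibody (final).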

[2] = biological target: T2, LRRK2 WT (Homo sapiens, UniProt Q5S007); test: LRRK2 Kinase Activity Assay (LanthaScreen TR-FRET), wild type; assay type: biochemical; conditions: recombinant wild type LRRK2, 25 μM ATP, 400 nM LRRKtide, 60 min
T2 construct: purchased Life Technologies PR8604B
T2 sequence (Q5S007 whole entry): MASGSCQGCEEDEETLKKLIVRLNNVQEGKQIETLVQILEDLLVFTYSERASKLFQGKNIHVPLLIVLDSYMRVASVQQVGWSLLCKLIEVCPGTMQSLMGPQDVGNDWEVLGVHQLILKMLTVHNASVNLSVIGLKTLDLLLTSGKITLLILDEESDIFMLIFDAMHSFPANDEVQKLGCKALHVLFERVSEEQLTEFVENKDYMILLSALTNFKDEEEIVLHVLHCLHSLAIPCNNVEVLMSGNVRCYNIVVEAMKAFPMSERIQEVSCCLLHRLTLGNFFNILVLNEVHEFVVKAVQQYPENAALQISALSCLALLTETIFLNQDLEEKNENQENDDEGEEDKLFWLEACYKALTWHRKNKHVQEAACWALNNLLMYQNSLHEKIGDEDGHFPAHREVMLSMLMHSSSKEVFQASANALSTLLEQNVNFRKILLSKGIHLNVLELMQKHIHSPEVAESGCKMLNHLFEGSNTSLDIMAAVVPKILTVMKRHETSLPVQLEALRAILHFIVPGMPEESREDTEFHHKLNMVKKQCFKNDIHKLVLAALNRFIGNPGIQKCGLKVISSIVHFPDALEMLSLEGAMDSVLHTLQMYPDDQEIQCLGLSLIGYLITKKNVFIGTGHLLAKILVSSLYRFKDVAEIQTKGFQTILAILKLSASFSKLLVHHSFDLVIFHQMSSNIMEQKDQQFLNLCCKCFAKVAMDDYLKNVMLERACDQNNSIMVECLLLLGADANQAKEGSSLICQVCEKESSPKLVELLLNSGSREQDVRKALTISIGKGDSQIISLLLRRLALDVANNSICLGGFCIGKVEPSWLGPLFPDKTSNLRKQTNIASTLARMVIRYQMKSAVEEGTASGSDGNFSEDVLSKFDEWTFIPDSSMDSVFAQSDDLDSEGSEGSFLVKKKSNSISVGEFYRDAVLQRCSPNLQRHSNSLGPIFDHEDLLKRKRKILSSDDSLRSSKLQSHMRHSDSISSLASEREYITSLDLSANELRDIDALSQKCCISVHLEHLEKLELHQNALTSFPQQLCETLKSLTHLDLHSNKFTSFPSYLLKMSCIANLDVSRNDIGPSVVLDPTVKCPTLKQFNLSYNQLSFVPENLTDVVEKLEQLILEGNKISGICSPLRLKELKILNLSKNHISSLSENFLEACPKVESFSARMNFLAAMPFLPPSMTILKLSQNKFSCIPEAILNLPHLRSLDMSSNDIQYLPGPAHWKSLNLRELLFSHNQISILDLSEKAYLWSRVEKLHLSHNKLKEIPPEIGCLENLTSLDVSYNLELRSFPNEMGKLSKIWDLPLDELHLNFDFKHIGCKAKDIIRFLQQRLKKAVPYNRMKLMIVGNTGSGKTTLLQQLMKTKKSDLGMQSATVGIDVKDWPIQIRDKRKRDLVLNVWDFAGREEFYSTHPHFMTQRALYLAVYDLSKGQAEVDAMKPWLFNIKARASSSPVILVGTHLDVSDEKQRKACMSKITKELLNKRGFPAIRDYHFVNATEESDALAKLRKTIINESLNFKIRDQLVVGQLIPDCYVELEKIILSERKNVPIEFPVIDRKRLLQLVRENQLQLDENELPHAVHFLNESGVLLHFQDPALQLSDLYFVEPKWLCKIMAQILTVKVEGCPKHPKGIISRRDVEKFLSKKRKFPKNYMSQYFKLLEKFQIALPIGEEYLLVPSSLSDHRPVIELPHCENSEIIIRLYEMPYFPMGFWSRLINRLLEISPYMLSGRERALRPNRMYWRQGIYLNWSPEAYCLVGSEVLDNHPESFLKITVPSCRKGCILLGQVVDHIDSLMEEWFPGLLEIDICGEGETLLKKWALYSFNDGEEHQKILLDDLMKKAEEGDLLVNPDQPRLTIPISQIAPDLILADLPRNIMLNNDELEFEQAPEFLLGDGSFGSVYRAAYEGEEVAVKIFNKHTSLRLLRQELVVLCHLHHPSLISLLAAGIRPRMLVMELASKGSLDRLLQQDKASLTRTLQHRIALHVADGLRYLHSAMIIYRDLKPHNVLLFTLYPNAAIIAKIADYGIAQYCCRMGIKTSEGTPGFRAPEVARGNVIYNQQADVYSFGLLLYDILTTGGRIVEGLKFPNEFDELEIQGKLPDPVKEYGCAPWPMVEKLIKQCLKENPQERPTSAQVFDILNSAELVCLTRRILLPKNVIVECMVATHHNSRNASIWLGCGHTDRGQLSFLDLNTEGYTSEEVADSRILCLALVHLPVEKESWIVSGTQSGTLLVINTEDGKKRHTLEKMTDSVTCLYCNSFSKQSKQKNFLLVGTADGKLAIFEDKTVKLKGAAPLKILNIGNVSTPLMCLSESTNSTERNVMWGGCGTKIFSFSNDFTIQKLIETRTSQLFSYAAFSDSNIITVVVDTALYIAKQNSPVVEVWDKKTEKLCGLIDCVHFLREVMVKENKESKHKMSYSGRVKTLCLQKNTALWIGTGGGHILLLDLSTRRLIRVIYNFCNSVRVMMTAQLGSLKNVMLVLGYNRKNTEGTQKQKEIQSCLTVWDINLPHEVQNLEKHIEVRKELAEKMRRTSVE
In short: as §1

T1 sequence (Q5S007 whole entry G2019S): as the sequence (Q5S007 whole entry) above, with G2019S counted along it

IC50 [1] [nM]	IC50 ([2]; class symbols) [nM]	IC50 ([2]; numeric bound) [nM]	SMILES
< 100	100 to 1000		N#Cc1ccc2c(c1)CC[C@H]2Oc1ccc2[nH]nc(-c3cnco3)c2n1 (single isomer, unassigned) [Example 31, enantiomer 2, 1-((3-(Oxazol-5-yl)-1H-pyrazolo[4,3-b]pyridin-5-yl)oxy)-2,3-dihydro-1H-indene-5-carbonitrile]
100 to 1000	1000 to 10000		N#Cc1ccc2c(c1)CCC[C@H]2Oc1cc2c(-c3cnco3)n[nH]c2cn1 (single isomer, unassigned) [Example 32, enantiomer 1, 5-((3-(Oxazol-5-yl)-1H-pyrazolo[3,4-c]pyridin-5-yl)oxy)-5,6,7,8-tetrahydronaphthalene-2-carbonitrile]
< 100	< 100		N#Cc1ccc2c(c1)CCC[C@H]2Oc1cc2c(-c3cnco3)n[nH]c2cn1 (single isomer, unassigned) [Example 32, enantiomer 2, 5-((3-(Oxazol-5-yl)-1H-pyrazolo[3,4-c]pyridin-5-yl)oxy)-5,6,7,8-tetrahydronaphthalene-2-carbonitrile]
< 100	< 100		N#Cc1ccc2c(c1)CCC[C@@H]2Nc1cc2c(-c3cnco3)n[nH]c2cn1 (single isomer, unassigned) [Example 33, enantiomer 1, 5-((3-(Oxazol-5-yl)-1H-pyrazolo[3,4-c]pyridin-5-yl)amino)-5,6,7,8-tetrahydronaphthalene-2-carbonitrile]
100 to 1000	100 to 1000		N#Cc1ccc2c(c1)CCC[C@@H]2Nc1cc2c(-c3cnco3)n[nH]c2cn1 (single isomer, unassigned) [Example 33, enantiomer 2, 5-((3-(Oxazol-5-yl)-1H-pyrazolo[3,4-c]pyridin-5-yl)amino)-5,6,7,8-tetrahydronaphthalene-2-carbonitrile]
< 100	< 100		N#Cc1nc2c(o1)CCC[C@@H]2Nc1ccc2[nH]nc(-c3cnco3)c2c1 (single isomer, unassigned) [Example 35, enantiomer 1, 4-((3-(Oxazol-5-yl)-1H-indazol-5-yl)amino)-4,5,6,7-tetrahydrobenzo[d]oxazole-2-carbonitrile]
100 to 1000	100 to 1000		N#Cc1nc2c(o1)CCC[C@@H]2Nc1ccc2[nH]nc(-c3cnco3)c2c1 (single isomer, unassigned) [Example 35, enantiomer 2, 4-((3-(Oxazol-5-yl)-1H-indazol-5-yl)amino)-4,5,6,7-tetrahydrobenzo[d]oxazole-2-carbonitrile]
100 to 1000	1000 to 10000		N#Cc1nc2c(o1)CCC2Nc1ccc2[nH]nc(-c3cnco3)c2c1 (single isomer, unassigned) [Example 36, enantiomer 1, 4-((3-(Oxazol-5-yl)-1H-indazol-5-yl)amino)-5,6-dihydro-4H-cyclopenta[d]oxazole-2-carbonitrile]
< 100	< 100		N#Cc1nc2c(o1)CCC2Nc1ccc2[nH]nc(-c3cnco3)c2c1 (single isomer, unassigned) [Example 36, enantiomer 2, 4-((3-(Oxazol-5-yl)-1H-indazol-5-yl)amino)-5,6-dihydro-4H-cyclopenta[d]oxazole-2-carbonitrile]
< 100	< 100		N#Cc1cccc2c1[C@@H](Oc1ccc3[nH]nc(-c4cnco4)c3c1)CC2 (single isomer, unassigned) [Example 37, enantiomer 1, 3-((3-(Oxazol-5-yl)-1H-indazol-5-yl)oxy)-2,3-dihydro-1H-indene-4-carbonitrile]
< 100	< 100		N#Cc1ccc2c(c1)CCC[C@@H]2Oc1ccc2[nH]nc(-c3ccnc(N4CCOCC4)c3)c2c1 (single isomer, unassigned) [Example 39, enantiomer 1, 5-((3-(2-Morpholinopyridin-4-yl)-1H-indazol-5-yl)oxy)-5,6,7,8-tetrahydronaphthalene-2-carbonitrile]
< 100	100 to 1000		COc1cc(-c2n[nH]c3ccc(N[C@H]4CCc5cc(C#N)ccc54)cc23)ccn1 (single isomer, unassigned) [Example 40, enantiomer 1, 1-((3-(2-Methoxypyridin-4-yl)-1H-indazol-5-yl)amino)-2,3-dihydro-1H-indene-5-carbonitrile]
< 100	< 100		N#Cc1cc2c(nn1)[C@@H](Oc1ccc3[nH]nc(-c4cnco4)c3c1)CC2 (single isomer, unassigned) [Example 41, enantiomer 1, 7-((3-(Oxazol-5-yl)-1H-indazol-5-yl)oxy)-6,7-dihydro-5H-cyclopenta[c]pyridazine-3-carbonitrile]
< 100	< 100		N#Cc1ccc2c(c1)CC(F)(F)[C@@H]2Nc1ccc2[nH]nc(-c3cnco3)c2c1 (single isomer, unassigned) [Example 42, enantiomer 1, 2,2-Difluoro-1-((3-(oxazol-5-yl)-1H-indazol-5-yl)amino)-2,3-dihydro-1H-indene-5-carbonitrile]
< 100	100 to 1000		Cc1n[nH]c2ccc(N[C@H]3CCCc4cc(C#N)ccc43)cc12 (single isomer, unassigned) [Example 43, enantiomer 1, 5-((3-Methyl-1H-indazol-5-yl)amino)-5,6,7,8-tetrahydronaphthalene-2-carbonitrile]
100 to 1000	1000 to 10000		Cc1n[nH]c2ccc(N[C@H]3CCCc4cc(C#N)ccc43)cc12 (single isomer, unassigned) [Example 43, enantiomer 2, 5-((3-Methyl-1H-indazol-5-yl)amino)-5,6,7,8-tetrahydronaphthalene-2-carbonitrile]
< 100	< 100		N#Cc1ccc2c(c1)CCC[C@@H]2Nc1ccc2[nH]nc(-c3cncs3)c2c1 (single isomer, unassigned) [Example 44, 5-((3-(Thiazol-5-yl)-1H-indazol-5-yl)amino)-5,6,7,8-tetrahydronaphthalene-2-carbonitrile]
1000 to 10000		> 10000	N#Cc1ccc2c(c1)CCC[C@@H]2Nc1ccc2[nH]nc(C3CCCCC3)c2c1 (single isomer, unassigned) [Example 45, 5-((3-Cyclohexyl-1H-indazol-5-yl)amino)-5,6,7,8-tetrahydronaphthalene-2-carbonitrile]
100 to 1000		> 10000	Cn1cccc(-c2n[nH]c3ccc(N[C@H]4CCCc5cc(C#N)ccc54)cc23)c1=O (single isomer, unassigned) [Example 46, 5-((3-(1-Methyl-2-oxo-1,2-dihydropyridin-3-yl)-1H-indazol-5-yl)amino)-5,6,7,8-tetrahydronaphthalene-2-carbonitrile]
100 to 1000	100 to 1000		N#Cc1nc2c(s1)[C@@H](Nc1ccc3[nH]nc(-c4cnco4)c3c1)CCC2 (single isomer, unassigned) [Example 47, enantiomer 1, 7-((3-(Oxazol-5-yl)-1H-indazol-5-yl)amino)-4,5,6,7-tetrahydrobenzo[d]thiazole-2-carbonitrile]
< 100	< 100		N#Cc1nc2c(s1)[C@@H](Nc1ccc3[nH]nc(-c4cnco4)c3c1)CCC2 (single isomer, unassigned) [Example 47, enantiomer 2, 7-((3-(Oxazol-5-yl)-1H-indazol-5-yl)amino)-4,5,6,7-tetrahydrobenzo[d]thiazole-2-carbonitrile]
< 100	< 100		N#Cc1cnc2c(c1)C1CC1[C@@H]2Nc1ccc2[nH]nc(-c3cnco3)c2c1 (single isomer, unassigned) [Example 48, enantiomer 1, 6-((3-(Oxazol-5-yl)-1H-indazol-5-yl)amino)-4b,5,5a,6-tetrahydrocyclopropa[3,4]cyclopenta[1,2-b]pyridine-3-carbonitrile]
< 100	< 100		N#Cc1cnc2c(c1)CCC[C@@H]2Nc1ccc2[nH]nc(-c3cnn(C(F)F)c3)c2c1 (single isomer, unassigned) [Example 49, enantiomer 1, 8-((3-(1-(Difluoromethyl)-1H-pyrazol-4-yl)-1H-indazol-5-yl)amino)-5,6,7,8-tetrahydroquinoline-3-carbonitrile]
< 100	100 to 1000		N#Cc1cnc2c(c1)CCC[C@@H]2Nc1ccc2[nH]nc(-c3cnn(C(F)F)c3)c2c1 (single isomer, unassigned) [Example 49, enantiomer 2, 8-((3-(1-(Difluoromethyl)-1H-pyrazol-4-yl)-1H-indazol-5-yl)amino)-5,6,7,8-tetrahydroquinoline-3-carbonitrile]
< 100	< 100		Cc1c(C#N)ccc2c1CC[C@@H]2Oc1ccc2[nH]nc(-c3cnn(C(F)F)c3)c2c1 (single isomer, unassigned) [Example 50, enantiomer 1, 1-((3-(1-(Difluoromethyl)-1H-pyrazol-4-yl)-1H-indazol-5-yl)oxy)-4-methyl-2,3-dihydro-1H-indene-5-carbonitrile]
100 to 1000	< 100		Cc1c(C#N)ccc2c1CC[C@@H]2Oc1ccc2[nH]nc(-c3cnn(C(F)F)c3)c2c1 (single isomer, unassigned) [Example 50, enantiomer 2, 1-((3-(1-(Difluoromethyl)-1H-pyrazol-4-yl)-1H-indazol-5-yl)oxy)-4-methyl-2,3-dihydro-1H-indene-5-carbonitrile]
< 100	< 100		N#Cc1ccc2c(c1F)CC[C@@H]2Oc1ccc2[nH]nc(-c3cnn(C(F)F)c3)c2c1 (single isomer, unassigned) [Example 51, enantiomer 1, 1-((3-(1-(Difluoromethyl)-1H-pyrazol-4-yl)-1H-indazol-5-yl)oxy)-4-fluoro-2,3-dihydro-1H-indene-5-carbonitrile]

— patent US20230148214A1, “INDAZOLES AND AZAINDAZOLES AS LRRK2 INHIBITORS” (ESCAPE Bio, Inc., priority 2020, published 2023)
